From US20260317384A1, “SMALL MOLECULE HUMANIN MIMETICS” (The Regents of the University Of California, priority 2023, published 2026)
Peptide text beside a SMILES is read from it. * marks the point of attachment. Cbz = O=C(OCc1ccccc1)*

Assays:
gp130 receptor = target: T1, gp130 receptor (Homo sapiens, UniProt P40189); assay: p-gp130 (p-Tyr) ELISA, HTS validation and dose response in U87-MG cells; assay type: cell-based; conditions: for p-gp130 (p-Tyr) dose response activity: dose response of validated hits, FIG. 4; for activation of gp130 receptor / increase of p-gp130: validation testing, truncated humanin peptides
T1 construct: express more than 10 times more endogenous gp130; endogenous in cells; host or cells: U87-MG
T1 sequence (P40189 23-918): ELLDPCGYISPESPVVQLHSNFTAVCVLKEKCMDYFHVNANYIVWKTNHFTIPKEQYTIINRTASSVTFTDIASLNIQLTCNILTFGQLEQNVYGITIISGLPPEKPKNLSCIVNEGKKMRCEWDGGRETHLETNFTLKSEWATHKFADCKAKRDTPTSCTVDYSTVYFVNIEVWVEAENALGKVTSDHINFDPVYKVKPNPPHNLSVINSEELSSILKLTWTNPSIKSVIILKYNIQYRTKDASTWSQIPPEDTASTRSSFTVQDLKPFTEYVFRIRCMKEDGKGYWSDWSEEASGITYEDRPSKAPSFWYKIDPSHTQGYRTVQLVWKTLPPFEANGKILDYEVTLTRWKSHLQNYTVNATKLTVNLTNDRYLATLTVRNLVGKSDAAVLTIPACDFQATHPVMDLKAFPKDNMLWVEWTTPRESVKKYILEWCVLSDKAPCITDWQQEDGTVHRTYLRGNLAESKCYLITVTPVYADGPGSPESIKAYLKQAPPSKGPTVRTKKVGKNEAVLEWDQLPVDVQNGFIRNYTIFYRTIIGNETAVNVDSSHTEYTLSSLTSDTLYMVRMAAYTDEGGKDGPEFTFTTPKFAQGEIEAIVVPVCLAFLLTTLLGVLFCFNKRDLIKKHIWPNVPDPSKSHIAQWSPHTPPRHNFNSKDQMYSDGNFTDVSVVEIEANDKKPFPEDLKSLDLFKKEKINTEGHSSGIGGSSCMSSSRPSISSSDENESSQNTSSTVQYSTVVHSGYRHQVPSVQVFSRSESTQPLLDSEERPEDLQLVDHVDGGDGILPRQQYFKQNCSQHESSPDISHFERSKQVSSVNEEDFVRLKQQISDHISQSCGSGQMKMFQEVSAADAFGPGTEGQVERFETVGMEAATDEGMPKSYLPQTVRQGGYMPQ
Source text: (§1) An ELISA assay for the evaluation of the p-gp130 levels was developed. This was a commercial ELISA—DuoSet ELISA from R&D systems (cat #DYC3407-2) and detected the tyrosine phosphorylation of gp130. […] In addition, a commercially available p-AKT (1,2,3) AlphaLISA kit was used (PE cat #ALSU-PAKT-B-HV) for the HTS assay.
(§2) Small molecules that act as HN mimetics represent a new class of AD therapeutics. Through screening, validated hits that increase both p-gp-130 and p-Akt levels were identified. Human glioblastoma cells were used, U87-MG. Several hits that enhance p-gp 130 were identified as well as several compounds that can increase p-AKT (FIG. 3).
(§3) Into a 96 well plate was added 99 μL of warm DMEM/F12 without FBS, then 1 uL of compounds at 1 mM were loaded into the96 well plate. These generated the compounds at 2×. Into a 96 well plate was added IL6/IL6R solution to achieve 6.6×10−4 mg/mL and 3.3×10−4 mg/mL respectively, this is 2× concentration. For this, primary EL6 stock (0.1 mg/mL) was diluted150-fold and IL6R stock (0.1 mg/mL) 300-fold to treat cells with final concentration of 6.6×10−4 mg/mL and 3.3×10−4 mg/mL respectively. 10 ml of Sample Diluent Concentrate 2 (2X)(Part #895891/DYC002)+10 ml ddH2O+200 ul of 100 mM activated Na3VO4 (aliquots at −20C)+20 ul of 10 mg/ml aprotinin (stock at 4C)+20 ul of 10 mg/ml leupeptin (aliquots at −20C)+200 ul PIC-protected from light. Lysis buffer containing 1% NP-40 Alternative, 20 mM Tris (pH 8.0), 137 mM NaCl, 10% glycerol, 2 mM EDTA, 1 mM activated sodium orthovanadate, 10 μg/mL Aprotinin, 10 μg/mL Leupeptin. Placed on ice. Removed the media from the cell plate and add 50 μL of DMEM/F12 without FBS. Then, added 50 μL of the compounds or positive control IL6/IL6R at 2× into the cell plate using the multichannel (FIG. 7). Allowed the treatment to take place for 10 minutes in the incubator at 37° C. and 5% CO2. Cells were lysed with 130 μL of ice-cold lysis buffer. Placed cells on ice for 15 min, then in the −80° C. overnight. Next, we prepared the ELISA plate by warming coating buffer to RT. 12 strips were coated with capture antibody. For this: 121 μL of 180 μg/mL of capture antibody (R&D DYC3407-2) was added into 21.48 mL of coating buffer. 100 μL of this solution was added to each well, covered with a lead and incubated at RT overnight and then conducted the ELISA assay using the manufacture outlined protocol. The cell lysate from the HTS was prepared using the AlphaLISA buffer to measure levels of p-AKT after compound treatment.

p-gp130 and p-Akt = assay: HN mimetic activity (p-gp130 and p-Akt); assay type: cell-based, human
Source text: as §1, §2
as §3, with “For this: 121 μL of 180 μg/mL of capture antibody (R&D DYC3407-2) was added into 21.48 mL of coating buffer. 100 μL of this solution was added to each well, covered with a lead and incubated at RT overnight and then conducted the ELISA assay using the manufacture outlined protocol. The cell lysate from the HTS was prepared using the AlphaLISA buffer to measure levels of p-AKT after compound treatment.” left out

p-gp130 = p-gp130 AlphaLISA in U87-MG cells; assay type: cell-based, human; conditions: 30 μM for 3 hours, FIG. 2D
Procedure: FIG. 2. Development of p-gp 130 and gp130 AlphaLISA assays (A) Evaluation of p-gp 130 and gp 130 levels in U87-MG and SH-SY5Y cells after treatment with compound 2 by immunoblotting. (B) Principle of AlphaLISA assay. (C) Data of developed gp-130 AlphaLISA assay. Analyte is recombinant gp130 (EC domain).
Eight different antibodies (more than 20 combinations) were tested in a course of p-gp130 and gp130 AlphaLISA development. The principle of the AlphaLISA assay is depicted in FIG. 2B. […] Lysate buffer composition and treatment conditions have been optimized.

p-AKT = p-AKT AlphaLISA in U87-MG cells; assay type: cell-based, human; set-up: dose or concentration left out as unconfirmed; conditions: FIG. 2D
Source text: as §1, §2
Into a 96 well plate was added 99 μL of warm DMEM/F12 without FBS, then 1 uL of compounds at 1 mM were loaded into the96 well plate. These generated the compounds at 2×. Into a 96 well plate was added IL6/IL6R solution to achieve 6.6×10−4 mg/mL and 3.3×10−4 mg/mL respectively, this is 2× concentration. For this, primary EL6 stock (0.1 mg/mL) was diluted150-fold and IL6R stock (0.1 mg/mL) 300-fold to treat cells with final concentration of 6.6×10−4 mg/mL and 3.3×10−4 mg/mL respectively. 10 ml of Sample Diluent Concentrate 2 (2X)(Part #895891/DYC002)+10 ml ddH2O+200 ul of 100 mM activated Na3VO4 (aliquots at −20C)+20 ul of 10 mg/ml aprotinin (stock at 4C)+20 ul of 10 mg/ml leupeptin (aliquots at −20C)+200 ul PIC-protected from light. […]

Compound | p-gp130 (p-Tyr) dose response activity (gp130 receptor) | HN mimetic activity (p-gp130 and p-Akt) | further results
CCC(=O)Nc1ccc2nc(C)n(-c3cccc(Cl)c3)c(=O)c2c1 [DDL-813] | most potent showing submicromolar activity | – | –
CC[C@H](C)[C@H](NC(=O)[C@H](CCC(=O)O)NC(=O)CNC(=O)[C@@H](N)[C@@H](C)O)C(=O)O [DDL-842, NH2-Thr-Gly-Glu-Ile-COOH] (H-TGEI-OH) | – | weak HN mimetic activity | –
C#CCSC[C@H](N)C(=O)O [S-propargyl-cyctein (SPRC), S-propargyl-cyctein] | – | – | p-gp130 AlphaLISA signal (p-gp130): significant increaste; p-AKT AlphaLISA signal (p-AKT): significant increaste
Cbz-Thr-Ser-NH2 [DDL-841] | – | increased HN mimetic activity | –
H-TGEINLPVK-OH [DDL-815, NH2-Thr-Gly-Glu-Ile-Asn-Leu-Pro-Val-Lys-COOH] | – | weaker HN mimetic activity through lower p-gp130 and p-Akt | –
H-TSEINLPVK-OH [DDL-814, NH2-Thr-Ser-Glu-Ile-Asn-Leu-Pro-Val-Lys-COOH] | good activity | – | activation of gp130 receptor / increase of p-gp130 (gp130 receptor): activate the gp130 receptor; activation of gp130 receptor / increase of p-gp130 (gp130 receptor; listed as P3): increased p-gp-130
